Assay results as given in patent US6740641B2 (priority 2001, dated 2004).
Like-named read-outs stand apart in the source and are kept apart here.

How the values were obtained:
Experiment in all cases: biochemical
[1] = target: T1, recombinant mu-opioid receptor expressed in CHO-K1 cells (Homo sapiens, UniProt P35372); format: binding; settings: for selectivity for mu opioid receptors relative to delta and kappa opioid receptors: from Ki data of Table 4
T1 construct: purchased Receptor Biology Inc; host or cells: CHO-K1

[2] = target: T2, recombinant kappa opiod receptor expressed in HEK 293 cells (Homo sapiens, UniProt P41145); format: binding
T2 construct: purchased Receptor Biology Inc; host or cells: HEK 293

[3] = target: T3, recombinant delta opiod receptor expressed in CHO-K1 cells (Homo sapiens, UniProt P41143); settings: 0.2 nM [3H]-naltrindole, Table 1; read-out: Delta-Receptor Binding Affinity Ki
T3 construct: purchased Receptor Biology Inc., Beltsville, Md; host or cells: CHO-K1

[4] = 0.2 nM [3H]-diprenorphine, Table 3, read-out: Mu-Receptor Binding Affinity Ki
[5] = 0.15 nM [3H]-bremazocine, Table 2, read-out: Kappa-Receptor Binding Affinity Ki

T2 sequence (P41145 whole entry): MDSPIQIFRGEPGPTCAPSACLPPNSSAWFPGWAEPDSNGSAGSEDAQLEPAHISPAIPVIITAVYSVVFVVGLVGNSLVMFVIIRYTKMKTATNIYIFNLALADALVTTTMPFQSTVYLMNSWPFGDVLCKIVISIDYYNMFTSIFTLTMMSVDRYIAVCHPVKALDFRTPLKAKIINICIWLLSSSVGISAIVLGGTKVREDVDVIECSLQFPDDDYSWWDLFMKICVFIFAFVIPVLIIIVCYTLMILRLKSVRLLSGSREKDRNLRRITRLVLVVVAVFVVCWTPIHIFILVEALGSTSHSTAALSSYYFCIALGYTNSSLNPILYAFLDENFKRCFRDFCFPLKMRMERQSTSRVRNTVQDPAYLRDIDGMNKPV
T1 sequence (P35372 whole entry): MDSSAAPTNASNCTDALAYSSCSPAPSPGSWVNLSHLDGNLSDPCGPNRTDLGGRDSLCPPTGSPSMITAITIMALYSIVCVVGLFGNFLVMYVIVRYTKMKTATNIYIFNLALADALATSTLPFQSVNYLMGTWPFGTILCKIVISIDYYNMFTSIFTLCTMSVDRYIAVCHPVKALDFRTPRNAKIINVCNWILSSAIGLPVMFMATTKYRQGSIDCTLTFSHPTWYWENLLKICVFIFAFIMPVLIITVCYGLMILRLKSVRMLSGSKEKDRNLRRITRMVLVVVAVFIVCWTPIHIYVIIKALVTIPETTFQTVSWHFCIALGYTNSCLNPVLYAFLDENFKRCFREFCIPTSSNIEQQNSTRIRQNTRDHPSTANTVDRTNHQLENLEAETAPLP
T3 sequence (P41143 whole entry): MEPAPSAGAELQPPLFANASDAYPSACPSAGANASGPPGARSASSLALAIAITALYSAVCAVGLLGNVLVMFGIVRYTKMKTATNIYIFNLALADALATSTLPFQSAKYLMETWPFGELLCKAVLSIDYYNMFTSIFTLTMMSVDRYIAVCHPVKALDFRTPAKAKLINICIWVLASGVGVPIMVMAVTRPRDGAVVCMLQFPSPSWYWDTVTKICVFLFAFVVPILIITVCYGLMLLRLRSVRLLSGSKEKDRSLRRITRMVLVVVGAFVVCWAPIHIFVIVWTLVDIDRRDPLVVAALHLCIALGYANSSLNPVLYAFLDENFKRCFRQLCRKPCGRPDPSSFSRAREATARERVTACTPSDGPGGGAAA

Row | Structure (SMILES) | mu selectivity compared with morphine sulfate [1] | Ki [1, 4] | selectivity for mu opioid receptors relative to delta and kappa opioid receptors [1] | Ki [2, 5] | Ki [3] | Ki [1] | Ki [2]
1 | CN1CCC23c4c5ccc(O)c4O[C@H]2[C@H](OC2OC(CO)C(O)C(O)C2O)CCC3C1C5 (stereo partly drawn) [Dihydroisomorphine-6-glucoside, 6-O-Glucosyldihydroisomorphine] | higher than that of morphine sulfate | 4.7 nM | high selectivity for mu opioid receptors | 440 nM | 868 nM |  | 
2 | CN1CC[C@]23c4c5ccc(O)c4O[C@H]2[C@@H](O)CC[C@H]3[C@H]1C5 [Dihydromorphine, reference compound] |  |  |  |  |  | 0.39 nM | 
3 | CN1CC[C@]23c4c5ccc(OC6O[C@H](CO)[C@@H](O)[C@H](O)[C@H]6O)c4O[C@H]2C(=O)CC[C@H]3[C@H]1C5 (stereo partly drawn) [Hydromorphone-3-glucoside, 3-O-Glucosylhydromorphone] | higher than that of morphine sulfate | 51 nM | high selectivity for mu opioid receptors | 2400 nM | 4500 nM |  | 
4 | Oc1ccc2c3c1O[C@H]1c4oc5ccccc5c4C[C@@]4(O)[C@@H](C2)N(CC2CC2)CC[C@]314 [Naltriben, reference compound] |  |  |  |  |  |  | 2.4 nM
